# System: DMS-114 complex spheroids with HUVEC/MSC, growth % test/control
# Test: Anticancer human tumor DMS-114 cell line growth inhibition [AhR];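 further: spheroids exposed to agents for 7 days before readout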;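 on viability, T/C: 100% = DMSO vehicle control wells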
# Conditions: for IC50: curve of first compound; for viability, T/C: stronger effect = lower value
# Method in brief: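 Spheroids combined tumor cells with HUVEC endothelial cells and human MSCs as stroma. AhR antagonists were paired with standard or investigational drugs, each dosed in half-log steps down from near clinical Cmax, or from 10 microM where Cmax was unknown.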
# [1] = second compound 0.1 µM, first compound 0.0316 µM
# [2] = second compound 0.1 µM, first compound 0.1 µM
# [3] = second compound 0.1 µM, first compound 0.316 µM
# [4] = second compound 0.1 µM, first compound 1 µM
# [5] = second compound 0.1 µM, first compound 3.16 µM
# [6] = second compound 0.1 µM, first compound 10 µM
# [7] = second compound 0.316 µM, first compound 0.0316 µM
# [8] = second compound 0.316 µM, first compound 0.1 µM
# [9] = second compound 0.316 µM, first compound 0.316 µM
# [10] = second compound 0.316 µM, first compound 1 µM
# [11] = second compound 0.316 µM, first compound 3.16 µM
# [12] = second compound 0.316 µM, first compound 10 µM
# [13] = second compound 1 µM, first compound 0.0316 µM
# [14] = second compound 1 µM, first compound 0.1 µM
# [15] = second compound 1 µM, first compound 0.316 µM
# [16] = second compound 1 µM, first compound 1 µM
# [17] = second compound 1 µM, first compound 3.16 µM
# [18] = second compound 1 µM, first compound 10 µM
# [19] = second compound 3.16 µM, first compound 0.0316 µM
# [20] = second compound 3.16 µM, first compound 0.1 µM
# [21] = second compound 3.16 µM, first compound 0.316 µM
# [22] = second compound 3.16 µM, first compound 1 µM
# [23] = second compound 3.16 µM, first compound 3.16 µM
# [24] = second compound 3.16 µM, first compound 10 µM
# [25] = second compound 10 µM, first compound 0.0316 µM
# [26] = second compound 10 µM, first compound 0.1 µM
# [27] = second compound 10 µM, first compound 0.316 µM
# [28] = second compound 10 µM, first compound 1 µM
# [29] = second compound 10 µM, first compound 3.16 µM
# [30] = second compound 10 µM, first compound 10 µM
# [31] = second compound 0.1 µM, first compound 0.00949 µM
# [32] = second compound 0.1 µM, first compound 0.03 µM
# [33] = second compound 0.1 µM, first compound 0.0949 µM
# [34] = second compound 0.1 µM, first compound 0.3 µM
# [35] = second compound 0.316 µM, first compound 0.00949 µM
# [36] = second compound 0.316 µM, first compound 0.03 µM
# [37] = second compound 0.316 µM, first compound 0.0949 µM
# [38] = second compound 0.316 µM, first compound 0.3 µM
# [39] = second compound 1 µM, first compound 0.00949 µM
# [40] = second compound 1 µM, first compound 0.03 µM
# [41] = second compound 1 µM, first compound 0.0949 µM
# [42] = second compound 1 µM, first compound 0.3 µM
# [43] = second compound 3.16 µM, first compound 0.00949 µM
# [44] = second compound 3.16 µM, first compound 0.03 µM
# [45] = second compound 3.16 µM, first compound 0.0949 µM
# [46] = second compound 3.16 µM, first compound 0.3 µM
# [47] = second compound 10 µM, first compound 0.00949 µM
# [48] = second compound 10 µM, first compound 0.03 µM
# [49] = second compound 10 µM, first compound 0.0949 µM
# [50] = second compound 10 µM, first compound 0.3 µM
smiles,measurement,setting,value
CC1(C)CCC(CN2CCN(c3ccc(C(=O)NS(=O)(=O)c4ccc(NCC5CCOCC5)c([N+](=O)[O-])c4)c(Oc4cnc5[nH]ccc5c4)c3)CC2)=C(c2ccc(Cl)cc2)C1 + CC(CO)NC(=O)c1cc(-c2ccc(Cl)cc2)nn(-c2cnn(C)c2)c1=O,IC50,second compound 0.1 µM,> 10 µM
same,IC50,second compound 0.316 µM,> 10 µM
same,IC50,second compound 1 µM,> 10 µM
same,IC50,second compound 3.16 µM,> 10 µM
same,IC50,second compound 10 µM,> 10 µM
same,"viability, T/C",[1],99.3%
same,"viability, T/C",[2],101%
same,"viability, T/C",[3],107%
same,"viability, T/C",[4],93.1%
same,"viability, T/C",[5],104%
same,"viability, T/C",[6],67.2%
same,"viability, T/C",[7],95.7%
same,"viability, T/C",[8],114%
same,"viability, T/C",[9],104%
same,"viability, T/C",[10],87.6%
same,"viability, T/C",[11],92.3%
same,"viability, T/C",[12],73.4%
same,"viability, T/C",[13],93.1%
same,"viability, T/C",[14],92.2%
same,"viability, T/C",[15],94%
same,"viability, T/C",[16],119%
same,"viability, T/C",[17],102%
same,"viability, T/C",[18],68.2%
same,"viability, T/C",[19],101%
same,"viability, T/C",[20],101%
same,"viability, T/C",[21],91.3%
same,"viability, T/C",[22],95.8%
same,"viability, T/C",[23],93%
same,"viability, T/C",[24],71.3%
same,"viability, T/C",[25],104%
same,"viability, T/C",[26],93%
same,"viability, T/C",[27],95.6%
same,"viability, T/C",[28],106%
same,"viability, T/C",[29],104%
same,"viability, T/C",[30],64.7%
CC1COCCN1c1cc(C2(S(C)(=N)=O)CC2)nc(-c2ccnc3[nH]ccc23)n1 (stereo not given) + CC(CO)NC(=O)c1cc(-c2ccc(Cl)cc2)nn(-c2cnn(C)c2)c1=O,IC50,second compound 0.1 µM,4.22 µM
same,IC50,second compound 0.316 µM,4.93 µM
same,IC50,second compound 1 µM,4.93 µM
same,IC50,second compound 3.16 µM,2.12 µM
same,IC50,second compound 10 µM,1.78 µM
same,"viability, T/C",[1],109%
same,"viability, T/C",[2],84.7%
same,"viability, T/C",[3],96.7%
same,"viability, T/C",[4],84.6%
same,"viability, T/C",[5],54.3%
same,"viability, T/C",[6],36.1%
same,"viability, T/C",[7],94.9%
same,"viability, T/C",[8],101%
same,"viability, T/C",[9],93.4%
same,"viability, T/C",[10],89.5%
same,"viability, T/C",[11],62.2%
same,"viability, T/C",[12],30.5%
same,"viability, T/C",[13],112%
same,"viability, T/C",[14],86.6%
same,"viability, T/C",[15],85.8%
same,"viability, T/C",[16],91.2%
same,"viability, T/C",[17],55.6%
same,"viability, T/C",[18],33.4%
same,"viability, T/C",[19],105%
same,"viability, T/C",[20],106%
same,"viability, T/C",[21],93.6%
same,"viability, T/C",[22],65.4%
same,"viability, T/C",[23],43%
same,"viability, T/C",[24],27.1%
same,"viability, T/C",[25],103%
same,"viability, T/C",[26],96.1%
same,"viability, T/C",[27],98.9%
same,"viability, T/C",[28],61.1%
same,"viability, T/C",[29],41.3%
same,"viability, T/C",[30],27.7%
CCN(c1cc(-c2ccc(CN3CCOCC3)cc2)cc(C(=O)NCc2c(C)cc(C)[nH]c2=O)c1C)C1CCOCC1 + CC(CO)NC(=O)c1cc(-c2ccc(Cl)cc2)nn(-c2cnn(C)c2)c1=O,IC50,second compound 0.1 µM,> 3 µM
same,IC50,second compound 0.316 µM,> 3 µM
same,IC50,second compound 1 µM,> 3 µM
same,IC50,second compound 3.16 µM,> 3 µM
same,IC50,second compound 10 µM,> 3 µM
same,"viability, T/C",[31],95.4%
same,"viability, T/C",[32],86.3%
same,"viability, T/C",[33],103%
same,"viability, T/C",[34],100%
same,"viability, T/C","second compound 0.1 µM, first compound 0.949 µM",98%
same,"viability, T/C","second compound 0.1 µM, first compound 3 µM",92.5%
same,"viability, T/C",[35],110%
same,"viability, T/C",[36],107%
same,"viability, T/C",[37],104%
same,"viability, T/C",[38],102%
same,"viability, T/C","second compound 0.316 µM, first compound 0.949 µM",92.8%
same,"viability, T/C","second compound 0.316 µM, first compound 3 µM",93%
same,"viability, T/C",[39],98.3%
same,"viability, T/C",[40],106%
same,"viability, T/C",[41],109%
same,"viability, T/C",[42],104%
same,"viability, T/C","second compound 1 µM, first compound 0.949 µM",95.7%
same,"viability, T/C","second compound 1 µM, first compound 3 µM",101%
same,"viability, T/C",[43],118%
same,"viability, T/C",[44],96.5%
same,"viability, T/C",[45],111%
same,"viability, T/C",[46],104%
same,"viability, T/C","second compound 3.16 µM, first compound 0.949 µM",93.3%
same,"viability, T/C","second compound 3.16 µM, first compound 3 µM",91%
same,"viability, T/C",[47],117%
same,"viability, T/C",[48],98.1%
same,"viability, T/C",[49],117%
same,"viability, T/C",[50],100%
same,"viability, T/C","second compound 10 µM, first compound 0.949 µM",92.4%
same,"viability, T/C","second compound 10 µM, first compound 3 µM",86.5%
Nc1ncn(C2CC(O)C(CO)S2)c(=O)n1 (stereo not given) + CC(CO)NC(=O)c1cc(-c2ccc(Cl)cc2)nn(-c2cnn(C)c2)c1=O,IC50,second compound 0.1 µM,> 0.3 µM
same,IC50,second compound 0.316 µM,> 0.3 µM
same,IC50,second compound 1 µM,> 0.3 µM
same,IC50,second compound 3.16 µM,> 0.3 µM
same,IC50,second compound 10 µM,> 0.3 µM
same,"viability, T/C","second compound 0.1 µM, first compound 0.000949 µM",117%
same,"viability, T/C","second compound 0.1 µM, first compound 0.003 µM",101%
same,"viability, T/C",[31],108%
same,"viability, T/C",[32],115%
same,"viability, T/C",[33],85.3%
same,"viability, T/C",[34],59.5%
same,"viability, T/C","second compound 0.316 µM, first compound 0.000949 µM",111%
same,"viability, T/C","second compound 0.316 µM, first compound 0.003 µM",113%
same,"viability, T/C",[35],92.7%
same,"viability, T/C",[36],89.5%
same,"viability, T/C",[37],79.9%
same,"viability, T/C",[38],58.3%
same,"viability, T/C","second compound 1 µM, first compound 0.000949 µM",107%
same,"viability, T/C","second compound 1 µM, first compound 0.003 µM",107%
same,"viability, T/C",[39],96.9%
same,"viability, T/C",[40],102%
same,"viability, T/C",[41],80%
same,"viability, T/C",[42],55.7%
same,"viability, T/C","second compound 3.16 µM, first compound 0.000949 µM",112%
same,"viability, T/C","second compound 3.16 µM, first compound 0.003 µM",107%
same,"viability, T/C",[43],115%
same,"viability, T/C",[44],118%
same,"viability, T/C",[45],66.2%
same,"viability, T/C",[46],51.9%
same,"viability, T/C","second compound 10 µM, first compound 0.000949 µM",126%
same,"viability, T/C","second compound 10 µM, first compound 0.003 µM",108%
same,"viability, T/C",[47],108%
same,"viability, T/C",[48],103%
same,"viability, T/C",[49],87.8%
same,"viability, T/C",[50],58%
